The values below come from US20260008787A1, “FUSED RING KRAS INHIBITORS FOR TREATING DISEASE” (BLOSSOMHILL THERAPEUTICS, INC., priority 2022, published 2026).

Experiment [1] concerns GP2D (KRAS G12D). Put plainly: Cell proliferation assay (CellTiter-Glo, 72 hours), GP2D. The class given is cell-based. The note with it: GP2d, 72 h, 384-well, CellTiter-Glo 2.0. The procedure: (§1) Two thousand KRAS mutant cells per well were seeded in 384-well white plate and then treated with indicated compounds for 72 hours at 37° C. and 5% CO2. Cell proliferation was measured using CellTiter-Glo 2.0 luciferase-based ATP detection assay (Promega, Madison, WI) following the manufacturer's protocol. IC50 values were determined using Prism software (GraphPad Software, San Diego, CA).

Experiment [2] deals with SW620 (KRAS G12V). Put plainly: Cell proliferation assay (CellTiter-Glo, 72 hours), SW620. Type of experiment: cell-based. To be noted: Homo sapiens, SW-620, 72 h, 384-well, CellTiter-Glo 2.0. The procedure: as §1
The test system of the next experiment is AGS (G12D). As to the kind of experiment: Cell proliferation assay (CellTiter-Glo, 72 hours), AGS. Type of experiment: cell-based. To be noted: 72 h, 384-well, CellTiter-Glo 2.0. As to the method:
as §1

The subject of experiment [3] is GP2D (KRAS G12D). As to the kind of experiment: Cell proliferation assay Method B (5 days), GP2D. The class given is cell-based. The note with it: 120 h, 96-well, read-out: Anti-Cell Proliferation IC50 (nM), GP2D. The procedure:
(§2) Method B: Two thousand KRAS mutant cells per well were seeded in 96-well black plate and then treated with indicated compounds for 5 days at 37° C. and 5% CO2. Cell proliferation was measured using CellTiter-Glo 2.0 luciferase-based ATP detection assay (Promega, Madison, WI) following the manufacturer's protocol. IC50 values were determined using Prism software (GraphPad Software, San Diego, CA).

Another experiment concerns AGS (KRAS G12D). Put plainly: Cell proliferation assay Method B (5 days), AGS. Type of experiment: cell-based. The note with it: 120 h, 96-well, read-out: Anti-Cell Proliferation IC50 (nM), AGS. The procedure: as §2
A further experiment relates to HPAC (KRAS G12D). As to the kind of experiment: Cell proliferation assay Method B (5 days), HPAC. The class given is cell-based. To be noted: Homo sapiens, 120 h, 96-well, read-out: Anti-Cell Proliferation IC50 (nM), HPAC. As to the method: as §2
In a further experiment the test system is AsPC1 (KRAS G12D). Put plainly: Cell proliferation assay Method B (5 days), AsPC1. The note with it: Homo sapiens, ASPC1, 120 h, 96-well, read-out: Anti-Cell Proliferation IC50 (nM), AsPC1. Type of experiment: cell-based. As to the method:
as §2

For another experiment, the system named is PANC0403 (KRAS G12D). As to the kind of experiment: Cell proliferation assay Method B (5 days), PANC0403. Type of experiment: cell-based. The note with it: Homo sapiens, Panc 04.03, 120 h, 96-well, read-out: Anti-Cell Proliferation IC50 (nM), PANC0403. As to the method:
as §2

The subject of a further experiment is PANC0504 (KRAS G12D). Put plainly: Cell proliferation assay Method B (5 days), PANC0504. The class given is cell-based. To be noted: Panc 05.04, 120 h, 96-well, read-out: Anti-Cell Proliferation IC50 (nM), PANC0504. The procedure: as §2
Another experiment relates to H23 (KRAS G12C). Put plainly: Cell proliferation assay Method B (5 days), H23. To be noted: 120 h, 96-well, read-out: Anti-Cell Proliferation IC50 (nM), H23. Type of experiment: cell-based. The procedure:
as §2

Another experiment has as its system H358 (KRAS G12C). Put plainly: Cell proliferation assay Method B (5 days), H358. The note with it: Homo sapiens, NCI-H358, 120 h, 96-well, read-out: Anti-Cell Proliferation IC50 (nM), H358. The class given is cell-based. As to the method:
as §2

In another experiment the test system is MiaPaCa2 (KRAS G12C). As to the kind of experiment: Cell proliferation assay Method B (5 days), MiaPaCa2. The class given is cell-based. To be noted: Homo sapiens, MIA PaCa-2, 120 h, 96-well, read-out: Anti-Cell Proliferation IC50 (nM), MiaPaCa2. The procedure:
as §2

The test system of experiment [4] is SW620 (KRAS G12V). Put plainly: Cell proliferation assay Method B (5 days), SW620. The note with it: Homo sapiens, SW-620, 120 h, 96-well, read-out: Anti-Cell Proliferation IC50 (nM), SW620. The class given is cell-based. As to the method:
as §2

For another experiment, the system named is CAPAN-2 (KRAS G12V). As to the kind of experiment: Cell proliferation assay Method B (5 days), CAPAN-2. To be noted: Homo sapiens, Capan-2, 120 h, 96-well, read-out: Anti-Cell Proliferation IC50 (nM), CAPAN-2. Type of experiment: cell-based. As to the method:
as §2

In another experiment the test system is H2291 (KRAS G12F). Put plainly: Cell proliferation assay Method B (5 days), H2291. The class given is cell-based. The note with it: Homo sapiens, NCI-H2291, 120 h, 96-well, read-out: Anti-Cell Proliferation IC50 (nM), H2291. As to the method:
as §2

The next experiment deals with HCT116 (KRAS G13D). As to the kind of experiment: Cell proliferation assay Method B (5 days), HCT116. The class given is cell-based. To be noted: Homo sapiens, HCT-116, 120 h, 96-well, read-out: Anti-Cell Proliferation IC50 (nM), HCT116. The procedure: as §2
The test system of experiment [5] is Phospho-ERK in AGS (KRAS G12D) cells. Put plainly: Kinase phosphorylation assay (Phospho-ERK), AGS. Type of experiment: cell-based. The note with it: 3 hours treatment, normalized to β-actin, read-out: pERK ½ IC50 (nM), AGS. The procedure:
(§3) KRAS mutant cells were plated in clear bottom 96 well plates at a density of 50,000-120,000 cells per well. Cells were allowed to attach overnight and then treated with compounds for 3 hours. After treatment, cells were fixed with 10% buffered formalin for 20 minutes at room temperature, washed with PBS, and then permeabilized with ice cold 100% methanol for 10 minutes to overnight at −20° C. Odyssey Blocking Buffer (LiCOR Biosciences: 927-60001) was added to each well for 1 hour at room temperature prior to incubation with primary antibodies overnight at 4° C. The primary antibodies used were as follows: Phospho-ERK (Cell Signaling: CS-9101) diluted to 1:250 and […] (Cell Signaling: CS-3700) diluted to 1:2000 in Odyssey Blocking Buffer+0.05% Tween20. Plates were washed 3× with Wash Buffer (PBS+0.1% Tween20) and incubated with secondary antibodies for 2 hours at room temperature. The following secondary antibodies were used: goat anti-rabbit-800 (LI-COR: 926-32211) and goat anti-mouse-680 (LICOR: 926-68070) both diluted to 1:2000 in Odyssey Blocking Buffer+0.05% Tween20. […] Phospho-ERK signal was normalized to β-actin signal for each well and the percent of DMSO control values were calculated. IC50 values were calculated using the sigmoidal dose-response (variable slope) equation in GraphPad Prism 4.

The subject of experiment [6] is Phospho-ERK in SW620 (KRAS G12V) cells. Put plainly: Kinase phosphorylation assay (Phospho-ERK), SW620. The note with it: Homo sapiens, SW-620, 3 hours treatment, normalized to β-actin, read-out: pERK ½ IC50 (nM), SW620. Type of experiment: cell-based. As to the method: as §3
Experiment [7] concerns Phospho-ERK in H2291 (KRAS G12F) cells. As to the kind of experiment: Kinase phosphorylation assay (Phospho-ERK), H2291. Type of experiment: cell-based. To be noted: Homo sapiens, NCI-H2291, 3 hours treatment, normalized to β-actin, read-out: pERK ½ IC50 (nM), H2291. The procedure: as §3
Experiment [8] has as its system Phospho-ERK in HCT116 (KRAS G13D) cells. As to the kind of experiment: Kinase phosphorylation assay (Phospho-ERK), HCT116. Type of experiment: cell-based. To be noted: Homo sapiens, HCT-116, 3 hours treatment, normalized to β-actin, read-out: pERK ½ IC50 (nM), HCT116. As to the method:
as §3

The target of another experiment is KRAS G12D (Homo sapiens, UniProt P01116, G12D). As to the kind of experiment: biochemical.
The target of the next experiment is KRAS G12V (Homo sapiens, UniProt P01116, G12V). Put plainly: biochemical.
Sequence of KRAS G12V (P01116 1-188 isoform P01116-2 G12V): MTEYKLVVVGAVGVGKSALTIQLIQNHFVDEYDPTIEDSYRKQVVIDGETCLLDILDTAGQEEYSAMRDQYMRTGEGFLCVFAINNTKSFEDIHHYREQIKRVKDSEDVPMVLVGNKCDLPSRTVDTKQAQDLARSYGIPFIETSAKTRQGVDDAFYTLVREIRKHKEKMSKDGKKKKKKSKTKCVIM

Sequence of KRAS G12D (P01116 1-188 isoform P01116-2 G12D): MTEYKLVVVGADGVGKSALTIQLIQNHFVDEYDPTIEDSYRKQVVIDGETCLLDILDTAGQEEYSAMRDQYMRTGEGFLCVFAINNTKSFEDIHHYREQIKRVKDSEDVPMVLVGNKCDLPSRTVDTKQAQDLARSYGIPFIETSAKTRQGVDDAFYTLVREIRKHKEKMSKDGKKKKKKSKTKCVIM

For `C#Cc1c(F)ccc2cc(O)cc(-c3nc4c5c(nc(OC[C@@]67CCCN6C[C@H](F)C7)nc5c3F)N3CCCC[C@H]3CO4)c12` [compound 1, 5-ethynyl-6-fluoro-4-((S)-4-fluoro-2-(((2R,7aS)-2-fluorotetrahydro-1H-pyrrolizin-7a(5H)-yl)methoxy)-8,8a,9,10,11,12-hexahydro-7-oxa-1,3,6,12a-tetraazabenzo[4,5]cyclohepta[1,2,3-de]naphthalen-5-yl)naphthalen-2-ol], the IC50 in the experiment with GP2D (KRAS G12D) [1] amounted to 2.51 nM; in the experiment with SW620 (KRAS G12V) [2], 10.4 nM; with AGS (G12D), 6.9 nM; in the experiment with GP2D (KRAS G12D) [3], 2.8 nM; in the experiment with AGS (KRAS G12D), 14.8 nM; with HPAC (KRAS G12D) it was 18.9 nM. Besides, the IC50 turned out to be 108 nM in the experiment on AsPC1 (KRAS G12D); 27.7 nM in the experiment on PANC0403 (KRAS G12D); 9 nM in the experiment with PANC0504 (KRAS G12D); 47.4 nM with H23 (KRAS G12C); 49.2 nM in the experiment with H358 (KRAS G12C); 15.2 nM in the experiment with MiaPaCa2 (KRAS G12C). Further, the IC50 with SW620 (KRAS G12V) [4] was found to be 9.6 nM; in the experiment with CAPAN-2 (KRAS G12V), 35.2 nM; with H2291 (KRAS G12F), 5.7 nM; in the experiment with HCT116 (KRAS G13D), 474 nM; in experiment [5], 3.46 nM; in experiment [6] it was 3.24 nM. The IC50 in experiment [7] was 4.29 nM; in experiment [8], 14.1 nM.

For the compound `CCc1c(F)ccc2cc(O)cc(-c3nc4c5c(nc(OC[C@@]67CCCN6C[C@H](F)C7)nc5c3F)N3CCCC[C@H]3CO4)c12` [compound 2, 5-ethyl-6-fluoro-4-[(8aS)-4-fluoro-2-{[(2R,7aS)-2-fluorotetrahydro-1H-pyrrolizin-7a(5H)-yl]methoxy}-8,8a,9,10,11,12-hexahydro-7-oxa-1,3,6,12a-tetraazabenzo[4,5]cyclohepta[1,2,3-de]naphthalen-5-yl]naphthalen-2-ol], the IC50 in the experiment on GP2D (KRAS G12D) [1] was found to be 17.2 nM; in the experiment on SW620 (KRAS G12V) [2], 41.4 nM; in the experiment with AGS (G12D), 52.3 nM; in the experiment with GP2D (KRAS G12D) [3], 11.3 nM; in the experiment with AGS (KRAS G12D), 86.2 nM; in the experiment with HPAC (KRAS G12D), 94.5 nM. Also, the IC50 with AsPC1 (KRAS G12D) is 213 nM; in the experiment on PANC0403 (KRAS G12D) it was 76.7 nM; in the experiment with PANC0504 (KRAS G12D) it was 44 nM; with H23 (KRAS G12C), 145 nM; in the experiment with H358 (KRAS G12C), 222 nM; with MiaPaCa2 (KRAS G12C), 68.1 nM. Besides, the IC50 in the experiment with SW620 (KRAS G12V) [4] was 43.8 nM; in the experiment with CAPAN-2 (KRAS G12V), 60.2 nM; in the experiment with H2291 (KRAS G12F), 37.2 nM; with HCT116 (KRAS G13D), more than 3000 nM; in experiment [5], 19.6 nM; in experiment [6], 22.1 nM. For the same compound, the IC50 turned out to be 65 nM in experiment [7], 93.4 nM in [8], 3.96 nM against KRAS G12D and 1.83 nM against KRAS G12V.
